These results are taken from patent publication US12590963B2, “Anti-cancer treatment of preselected subjects and screening methods to identify susceptible subjects” (TUDAG TU Dresden Aktiengesellschaft, priority 2018, dated 2026).

The assay relates to U-87 cells. Description: Drug screening of FDA-approved compound library, cell viability by ATP levels (ATPLite). The assay is classed as cell-based, human. The following applies: FGFJI medium. How it is done: A library of 1,600 FDA-approved compounds was screened on U-87 cells cultured in the improved conditions. Each drug was screened at both 3 micromolar and 10 micromolar concentrations. Cell viability was assessed by measuring ATP levels.
Drugs that opposed cell viability were further investigated. These drugs were re-screened under the more common cell culture conditions (in serum-supplemented RMPI medium, where cells are more differentiated). Some drugs were identified that also opposed growth under the more differentiated conditions. We also identified some drugs that only opposed growth in the improved conditions. It was focused on the latter drugs only as being the target compounds of the present invention.
White Corning 384 well plates (Cat #3570) were coated with 40 ul of […] polyornithine (Sigma, #P-365) at 370C overnight. The next day the plates were washed 5 times with water using a BioTek EL 406 plate washer. The plates were then coated with 40 ul of 1 mg/ml fibronectin (R&D Systems, #1030-Fn) for 2 hours at 370C and then washed 2 times with PBS. Either 15nl or 50nl of either 10 mM library compounds (MicroSource Pharmakon library) or 100% DMSO as negative control or 1 mM Staurosporine (ACROS #328532500) were dispensed with a Labcyte Echo 550 to screen the library at 3u M and 10 μM respectively. U87 cells were seeded in the plates with a WellMate drop dispenser (ThermoFischer) at a density of 3000 cells per well in 50 μl N2 medium and incubated for 20 hours at 37 °C in 5% C02. Cell viability was assayed using Perkin Elmer ATPLite (Cat 6016731) according to vendor's instructions. For the dose dependent verification assay, cells were seeded in N2 medium with or without serum to test the specificity of compound action.
A library of 1,600 FDA-approved compounds was screened at two different concentrations (10 μM and 3 μM) on U-87 cells cultured in FGFJI (FIG. 8).
On the technique in general: In ATP-based viability assays light output follows the ATP content of the culture.

The mark [1] stands for this setting: 10 μM, second value of the cell.

Regarding `Oc1cc(Cl)ccc1Oc1ccc(Cl)cc1Cl` [TRICLOSAN, 5-chloro-2-(2,4-dichlorophenoxy)phenol], the “ATP assay score (3 μM, 10 μM)” value runs as follows: (3 μM, first value of the cell) −7; under setting [1], −5.
Take `Oc1c(Br)cc(Br)c2cccnc12` [BROXYQUINOLINE, 5,7-dibromoquinolin-8-ol]: the “ATP assay score (3 μM, 10 μM)” value is on record as −11 (3 μM, first value of the cell) and −8 under setting [1].
As to `Oc1c(Cl)cc(Cl)cc1Sc1cc(Cl)cc(Cl)c1O.[Na+]` [BITHIONATE Na, sodium 2,4-dichloro-6-(3,5-dichloro-2-hydroxyphenyl)sulfanylphenol], the “ATP assay score (3 μM, 10 μM)” value (3 μM, first value of the cell) was −11 and the “ATP assay score (3 μM, 10 μM)” value under setting [1] is recorded as −10.
For `Oc1c(I)cc(Cl)c2cccnc12` [CLIOQUINOL, 5-chloro-7-iodoquinolin-8-ol], in that order: −11 and −7.
For the molecule `CC(C)(C)CC(C)(C)c1ccc(O)c(Cc2ccc(Cl)cc2Cl)c1` [CLOFOCTOL, 2-[(2,4-dichlorophenyl)methyl]-4-(2,4,4-trimethylpentan-2-yl)phenol], the “ATP assay score (3 μM, 10 μM)” value by setting is: (3 μM, first value of the cell) −11; under setting [1], −5.
The corresponding values for `CC[C@@H](C(=O)[C@@H](C)[C@@H](O)[C@H](C)CCc1ccc(C)c(O)c1C(=O)[O-])[C@H]1O[C@](CC)([C@H]2CC[C@](O)(CC)[C@H](C)O2)C[C@@H]1C.[Na+]` [LASALOCID Na, sodium 6-[(3R,4S,5S,7R)-7-[(2S,3S,5S)-5-ethyl-5-[(2R,5R,6S)-5-ethyl-5-hydroxy-6-methyloxan-2-yl]-3-methyloxolan-2-yl]-4-hydroxy-3,5-dimethyl-6-oxononyl]-2-hydroxy-3-methylbenzoate] are −10 and −5.
